This note sets out measurements from PubChem BioAssay (NCI).

Some test systems named below: RXF-631 renal; HOP-18 NSCLC; DMS 114 small cell lung; DMS 273 small cell lung; SNB-78 CNS; BT-549 breast; T-47D breast; MDA-N.
Common to all, as to experiment: NCI anticancer screen, dose series, 48 h

The structures appear in SMILES notation.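 96-well plates; 48 h exposure; 5 concentrations. Endpoints by linear interpolation between flanking doses. Not reached: highest tested concentration assigned. The concentration for full growth arrest is given as TGI.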

In the case of `CCc1cccc(C(C)C)c1C1C(=O)C(=O)N(c2nc3ccccc3s2)C(=O)C1=O`, the TGI in the test with RXF-631 renal, in the test on HOP-18 NSCLC, in the test on DMS 114 small cell lung, in the test with DMS 273 small cell lung and in the test with SNB-78 CNS was more than 100 µM each time.

For the compound `S=C(N/N=C/c1ccccc1)NC1CC(c2ccccc2)Oc2ccccc21` (stereo not drawn), the TGI with DMS 114 small cell lung was more than 100 µM; with DMS 273 small cell lung, more than 100 µM; with SNB-78 CNS, 96.1 µM.

With `COc1ccc(C2Oc3cc(OC)c(O)cc3[C@@H]2C)cc1` (stereo partly drawn), the TGI in the test with HOP-18 NSCLC is more than 100 µM; with DMS 114 small cell lung it was 40.3 µM; in the test with DMS 273 small cell lung, more than 100 µM; in the test on SNB-78 CNS it was more than 100 µM.

Take `CC[N+]1(C)CCC(O)(/C=C/c2ccccc2)C(C(=O)/C=C/c2ccccc2)C1` (stereo not drawn): the TGI was 34.5 µM with BT-549 breast; 31.3 µM with HOP-18 NSCLC; 16.9 µM with DMS 114 small cell lung; 40.4 µM in the test on T-47D breast; 47.3 µM in the test on DMS 273 small cell lung; more than 78.7 µM in the test with SNB-78 CNS. Also, the TGI in the test on MDA-N was 23.7 µM.

For the compound `Nc1n[nH]c(=O)c2c1c(Br)cn2C1OC(CO)C(O)C1O` (stereo not drawn), the TGI in the test on RXF-631 renal is 6.59 µM; in the test with HOP-18 NSCLC, 65.6 µM; in the test on DMS 114 small cell lung it was 17.8 µM; with DMS 273 small cell lung, more than 41.2 µM; in the test on SNB-78 CNS, more than 80.5 µM.

With `CC(=O)/C=C\C(=O)NNS(=O)(=O)c1ccc(C)cc1`, the TGI in the test with RXF-631 renal, in the test with DMS 273 small cell lung and with SNB-78 CNS was more than 100 µM each time.

Consider `CC(=O)OC12CCCCC1C1(CCCC1)NC2=O` (stereo not drawn), for which the TGI in the test with HOP-18 NSCLC, in the test with DMS 114 small cell lung and in the test with SNB-78 CNS was more than 100 µM each time.

Consider `CC/C(=C(\c1ccccc1)c1ccc(OCC[N+](C)(C)C)cc1)c1ccccc1`, for which the TGI came to 41 µM in the test with RXF-631 renal; 26.2 µM with HOP-18 NSCLC; 21.7 µM in the test with DMS 114 small cell lung; 19.9 µM in the test on DMS 273 small cell lung; 34.3 µM in the test on SNB-78 CNS.

With `O=C1[C@@H]2C3C=CC([C@H]4C(=O)N(CO)C(=O)[C@@H]34)[C@@H]2C(=O)N1CO`, the TGI in the test with HOP-18 NSCLC was 86.4 µM; in the test on DMS 114 small cell lung, more than 62.2 µM; with DMS 273 small cell lung it was more than 57.3 µM; with SNB-78 CNS it was more than 100 µM.

For the compound `COC(=O)c1c(OC(=O)c2ccccc2)noc1CC(=O)OC1C=CCCC1` (stereo not drawn), the TGI in the test with HOP-18 NSCLC, with DMS 114 small cell lung, in the test on DMS 273 small cell lung and with SNB-78 CNS was more than 100 µM in each case.

`C/C=C\C(C)=C/C(C)C(=O)CC(O)CC1CC(=O)NC(=O)C1` (stereo not drawn): the TGI with BT-549 breast, in the test with T-47D breast and with MDA-N was more than 100 µM in each case.

Consider `O=C(CN1C(=O)c2ccccc2C1=O)NC1(C(=O)O)CCCC1`, for which the TGI in the test on BT-549 breast, in the test on T-47D breast and in the test with MDA-N was more than 100 µM in each case.

On to `Cn1c(N)c(N=Nc2ccc(S(N)(=O)=O)cc2)c(=O)n(C)c1=O`, for which the TGI in the test on BT-549 breast, in the test with T-47D breast and with MDA-N was more than 100 µM in each case.

Turning to `C[N+](C)(C)CC(=O)N/N=C(\C(=O)Nc1ccc(Cl)cc1)C1C(=O)N(c2ccccc2)N=C1N` (stereo not drawn), the TGI in the test on DMS 114 small cell lung, in the test with DMS 273 small cell lung and with SNB-78 CNS was more than 100 µM in each case.

On to `COc1ccccc1C1C(Cl)C(=O)N1NC(=O)Cc1ccccc1` (stereo not drawn), for which the TGI with HOP-18 NSCLC, with DMS 114 small cell lung, in the test with DMS 273 small cell lung and in the test on SNB-78 CNS was more than 100 µM in each case.

As for `COc1cc(OC)c(-c2oc3ccccc3c(=O)c2O)c(OC)c1`, the TGI is more than 100 µM with BT-549 breast, more than 100 µM with T-47D breast and 2.93 µM with MDA-N.

On to `NC(=O)NOCC1NC(=O)NC1=O` (stereo not drawn), for which the TGI in the test with BT-549 breast, with T-47D breast and with MDA-N was more than 100 µM in each case.

Regarding `COC(=O)c1cc(CNCCc2c[nH]c3ccccc23)on1`, the TGI in the test with RXF-631 renal, in the test on DMS 114 small cell lung, in the test on T-47D breast, with DMS 273 small cell lung and in the test on MDA-N was more than 100 µM in each case.

With `O=[N+]([O-])c1ccc(-c2ccc(C3=Nn4c(nnc4-c4ccc(Cl)cc4)SC3)o2)cc1`, the TGI with RXF-631 renal, in the test with HOP-18 NSCLC, in the test with DMS 114 small cell lung and with DMS 273 small cell lung was more than 100 µM throughout.

`CCN(CC)CC(C(=O)Nc1c(C)cccc1C)/C(C)=N/NC(N)=S` (stereo not drawn): the TGI in the test with RXF-631 renal, in the test with DMS 114 small cell lung, in the test with DMS 273 small cell lung and in the test with SNB-78 CNS was more than 100 µM throughout.

As to `CCOc1ccccc1Nc1nc(C)c(C(=O)CC(=O)C(=O)Nc2ccccc2)s1`, the TGI in the test with HOP-18 NSCLC, with DMS 114 small cell lung, in the test with DMS 273 small cell lung and in the test with SNB-78 CNS was more than 100 µM in each case.

Turning to `COc1ccc2nccc(C3OC(=O)N4CCC(=O)CC34)c2c1` (stereo not drawn), the TGI in the test on RXF-631 renal and in the test on SNB-78 CNS was more than 100 µM in each case.

As for `COC(=O)C1CCC2(CC1)NC(=O)NC2=O` (stereo not drawn), the TGI with RXF-631 renal, in the test on HOP-18 NSCLC, in the test with DMS 114 small cell lung, in the test with DMS 273 small cell lung and in the test with SNB-78 CNS was more than 100 µM each time.

Take `O=S(O)CCCSSCCCCSSCCCS(=O)O`: the TGI in the test on HOP-18 NSCLC, with DMS 114 small cell lung, in the test with DMS 273 small cell lung and in the test with SNB-78 CNS was more than 100 µM throughout.

`COc1cc(C2C(C(=O)Nc3ccc(Cl)c(Cl)c3)=C(C)NC(C)=C2C(=O)Nc2ccc(Cl)c(Cl)c2)ccc1O`: the TGI in the test with DMS 114 small cell lung was found to be 24.2 µM; in the test on SNB-78 CNS, 53.5 µM.

As for `Cc1cn2cc(-c3ccncc3)nc2s1`, the TGI with RXF-631 renal, with HOP-18 NSCLC, in the test with DMS 114 small cell lung, in the test on DMS 273 small cell lung and in the test on SNB-78 CNS was more than 100 µM throughout.

With `COc1cc(/C=C/C(=O)C(C)(C)C)cc(OC)c1OC`, the TGI with HOP-18 NSCLC is more than 100 µM; in the test with DMS 114 small cell lung, 71.5 µM; in the test on DMS 273 small cell lung it was more than 100 µM.

As to `CCCCCC1C2C(=O)NC(=O)C1C(=O)NC2=O` (stereo not drawn), the TGI in the test with DMS 114 small cell lung and in the test on DMS 273 small cell lung was more than 100 µM throughout.

On to `CC(C)CCC[C@@H](C)[C@H]1CC[C@H]2[C@@H]3CC=C4CC(OCCCCN(O)CCCSC5OC(CO)C(O)C(O)C5O)CC[C@]4(C)[C@H]3CC[C@]12C` (stereo partly drawn), for which the TGI was 45.6 µM in the test on DMS 114 small cell lung, more than 100 µM in the test with DMS 273 small cell lung and more than 100 µM in the test on SNB-78 CNS.

With `O=c1c2ccccc2nc(-c2ccccc2Cl)n1NC1OC(CO)C(O)C(O)C1O` (stereo not drawn), the TGI with HOP-18 NSCLC, in the test on DMS 114 small cell lung, with DMS 273 small cell lung and with SNB-78 CNS was more than 100 µM throughout.

With `CC(=O)NC1C(=O)CC(c2ccccc2)N(C)C1c1ccccc1` (stereo not drawn), the TGI in the test with RXF-631 renal, with DMS 114 small cell lung, with DMS 273 small cell lung and with SNB-78 CNS was more than 100 µM each time.

Turning to `Cc1nc2c(=O)n(C)c(=O)nc-2n(-c2ccc(Cl)cc2)c1C`, the TGI in the test on RXF-631 renal, in the test with HOP-18 NSCLC, with DMS 114 small cell lung, in the test with DMS 273 small cell lung and in the test with SNB-78 CNS was more than 100 µM each time.

Consider `CC1CCCC2(O1)OC1CC(=O)OC1C1=C2C(=O)c2ccccc2C1=O` (stereo not drawn), for which the TGI is 3.35 µM in the test with DMS 114 small cell lung, 3.82 µM in the test with DMS 273 small cell lung and 4.85 µM with SNB-78 CNS.

For the compound `O=C1OC2C(O)COC2(OCc2c[nH]c3ccccc23)C1O` (stereo not drawn) (tested in a mixture with another compound), the TGI in the test with HOP-18 NSCLC, with DMS 114 small cell lung, with DMS 273 small cell lung and in the test with SNB-78 CNS was more than 100 µM each time.

In the case of `O=C(Nc1cccc(Cl)c1)c1cc2cc(N=Nc3ccc(Br)cc3)ccc2oc1=O`, the TGI with RXF-631 renal was more than 100 µM; in the test with HOP-18 NSCLC, more than 100 µM; in the test with DMS 114 small cell lung, 56.6 µM; with DMS 273 small cell lung it was 55.6 µM; in the test on SNB-78 CNS it was more than 100 µM.

Regarding `O=C1c2ccccc2CC1C1(O)C(=O)Nc2c(Cl)cc(Cl)cc21` (stereo not drawn), the TGI is more than 100 µM in the test with RXF-631 renal; more than 100 µM in the test on HOP-18 NSCLC; 68.8 µM in the test with DMS 114 small cell lung; more than 100 µM in the test on DMS 273 small cell lung; more than 100 µM in the test on SNB-78 CNS.

As to `COc1ccc(/C=C(\NC(=O)c2ccccc2)c2nc3ccccc3[nH]2)cc1`, the TGI with DMS 114 small cell lung was 90.6 µM; in the test with DMS 273 small cell lung it was more than 100 µM.

Take `Cc1ccc(S(=O)(=O)NC2(C=O)CCC(C(C)(C)C)CC2)cc1` (stereo not drawn): the TGI was more than 100 µM with RXF-631 renal; more than 100 µM in the test on HOP-18 NSCLC; 62.8 µM in the test with DMS 114 small cell lung; more than 100 µM in the test with DMS 273 small cell lung; more than 100 µM in the test with SNB-78 CNS.

On to `COCC(O)CN1C(N)=NC(O)C1O` (stereo not drawn), for which the TGI with HOP-18 NSCLC, in the test with DMS 114 small cell lung and in the test on SNB-78 CNS was more than 100 µM throughout.
